Reference: ChEMBL document CHEMBL1201862, “PubChem BioAssay data set” (2004)
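Results reflect a 48-hour exposure of cells in 96-well plates to compound at five concentrations. Abbreviation: GI50, concentration required for 50% inhibition of growth.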 Activity calls are given as the source filed them. Cut-off read from the data, not from the text of the source: active = GI50 up to about 1.1 µM and inactive = higher.

Legend:
Experiment in all cases: inhibition of tumour cell growth, NCI panel, 48 h
HCT-15 = tested on: HCT-15
SK-MEL-28 = tested on: SK-MEL-28
KM12 = tested on: KM12
OVCAR-4 = tested on: OVCAR-4
SK-MEL-2 = tested on: SK-MEL-2
A549 = tested on: A549
MDA-MB-435 = tested on: MDA-MB-435
HT-29 = tested on: HT-29
ACHN = tested on: ACHN
SNB-75 = tested on: SNB-75
SN12C = tested on: SN12C
RPMI-8226 = tested on: RPMI-8226
SF-539 = tested on: SF-539
MDA-MB-231 = tested on: MDA-MB-231
Malme-3M = tested on: Malme-3M
786-0 = tested on: 786-0
HCC 2998 = tested on: HCC 2998
HOP-62 = tested on: HOP-62
HCT-116 = tested on: HCT-116
SK-OV-3 = tested on: SK-OV-3
NCI-H226 = tested on: NCI-H226
UO-31 = tested on: UO-31
NCI-H460 = tested on: NCI-H460
UACC-257 = tested on: UACC-257
K562 = tested on: K562
SNB-19 = tested on: SNB-19
DU-145 = tested on: DU-145
MDA-N = tested on: MDA-N
PC-3 = tested on: PC-3
MCF7 = tested on: MCF7
CCRF-CEM = tested on: CCRF-CEM
EKVX = tested on: EKVX
COLO 205 = tested on: COLO 205
OVCAR-3 = tested on: OVCAR-3
A498 = tested on: A498
NCI-H23 = tested on: NCI-H23
OVCAR-8 = tested on: OVCAR-8
T47D = tested on: T47D
SF-268 = tested on: SF-268
OVCAR-5 = tested on: OVCAR-5
NCI/ADR-RES = tested on: NCI/ADR-RES
U-251 = tested on: U-251
CAKI-1 = tested on: CAKI-1
M14 = tested on: M14
MOLT-4 = tested on: MOLT-4
UACC-62 = tested on: UACC-62
BT-549 = tested on: BT-549
SW-620 = tested on: SW-620
SF-295 = tested on: SF-295
SR = tested on: SR
IGROV-1 = tested on: IGROV-1
Hs-578T = tested on: Hs-578T
HOP-92 = tested on: HOP-92
TK-10 = tested on: TK-10
HL-60 = tested on: HL-60
NCI-H522 = tested on: NCI-H522
SK-MEL-5 = tested on: SK-MEL-5
RXF 393 = tested on: RXF 393
LOX IMVI = tested on: LOX IMVI

For `COc1ccc(/C=N/n2c(C)n[nH]c2=O)cc1`, the GI50 (HCT-15) was > 100 µM, the GI50 (SK-MEL-28) was > 100 µM (inactive) and the GI50 (KM12) was > 100 µM (inactive). For the same molecule, the GI50 (OVCAR-4) was 42.8 µM (inactive), the GI50 (SK-MEL-2) was > 100 µM (inactive) and the GI50 (A549) was > 100 µM (inactive). The GI50 (MDA-MB-435) was > 100 µM (inactive), the GI50 (HT-29) was > 100 µM (inactive) and the GI50 (ACHN) was > 100 µM (inactive). The GI50 (SNB-75) was > 100 µM (inactive), the GI50 (SN12C) was > 100 µM (inactive) and the GI50 (RPMI-8226) was > 100 µM (inactive). For the same molecule, the GI50 (SF-539) was > 100 µM (inactive), the GI50 (MDA-MB-231) was > 100 µM (inactive) and the GI50 (Malme-3M) was > 100 µM (inactive). The GI50 (786-0) was > 100 µM (inactive), the GI50 (HCC 2998) was > 100 µM (inactive) and the GI50 (HOP-62) was > 100 µM (inactive). The GI50 (HCT-116) was > 100 µM (inactive), the GI50 (SK-OV-3) was > 100 µM (inactive) and the GI50 (NCI-H226) was > 100 µM (inactive). For the same molecule, the GI50 (UO-31) was > 100 µM (inactive), the GI50 (NCI-H460) was > 100 µM (inactive) and the GI50 (UACC-257) was > 100 µM (inactive). For the same molecule, the GI50 (K562) was > 100 µM (inactive), the GI50 (SNB-19) was > 100 µM (inactive) and the GI50 (DU-145) was > 100 µM (inactive). The GI50 (MDA-N) was > 100 µM (inactive), the GI50 (PC-3) was > 100 µM (inactive) and the GI50 (MCF7) was > 100 µM (inactive). For the same molecule, the GI50 (CCRF-CEM) was > 100 µM (inactive), the GI50 (EKVX) was 85.7 µM (inactive) and the GI50 (COLO 205) was > 100 µM (inactive). For the same molecule, the GI50 (OVCAR-3) was 54.3 µM (inactive), the GI50 (A498) was > 100 µM (inactive) and the GI50 (NCI-H23) was > 100 µM (inactive). For the same molecule, the GI50 (OVCAR-8) was > 100 µM (inactive), the GI50 (T47D) was > 100 µM (inactive) and the GI50 (SF-268) was > 100 µM (inactive). For the same molecule, the GI50 (OVCAR-5) was > 100 µM (inactive), the GI50 (NCI/ADR-RES) was > 100 µM (inactive) and the GI50 (U-251) was > 100 µM (inactive). The GI50 (CAKI-1) was > 100 µM (inactive), the GI50 (M14) was > 100 µM (inactive) and the GI50 (MOLT-4) was > 100 µM (inactive). The GI50 (UACC-62) was > 100 µM (inactive), the GI50 (BT-549) was > 100 µM (inactive) and the GI50 (SW-620) was > 100 µM (inactive). The GI50 (SF-295) was > 100 µM (inactive).

`CC(O)=C1C(=O)CCC1=O` was tested, and the GI50 (SR) was > 100 µM (inactive), the GI50 (SK-MEL-28) was > 100 µM (inactive) and the GI50 (KM12) was > 100 µM (inactive). For the same molecule, the GI50 (IGROV-1) was > 100 µM (inactive), the GI50 (OVCAR-4) was > 100 µM (inactive) and the GI50 (SK-MEL-2) was > 100 µM (inactive). For the same molecule, the GI50 (A549) was > 100 µM (inactive), the GI50 (MDA-MB-435) was > 100 µM (inactive) and the GI50 (HT-29) was > 100 µM (inactive). The GI50 (ACHN) was > 100 µM (inactive), the GI50 (SNB-75) was > 100 µM (inactive) and the GI50 (Hs-578T) was > 100 µM (inactive). The GI50 (SN12C) was > 100 µM (inactive), the GI50 (HOP-92) was > 100 µM (inactive) and the GI50 (RPMI-8226) was > 100 µM (inactive). For the same molecule, the GI50 (TK-10) was > 100 µM (inactive), the GI50 (SF-539) was > 100 µM (inactive) and the GI50 (Malme-3M) was > 100 µM (inactive). The GI50 (HL-60) was > 100 µM (inactive), the GI50 (HCC 2998) was > 100 µM (inactive) and the GI50 (HOP-62) was > 100 µM (inactive). The GI50 (NCI-H522) was > 100 µM (inactive), the GI50 (HCT-116) was > 100 µM (inactive) and the GI50 (SK-OV-3) was > 100 µM (inactive). For the same molecule, the GI50 (NCI-H226) was > 100 µM (inactive), the GI50 (SK-MEL-5) was > 100 µM (inactive) and the GI50 (UO-31) was > 100 µM (inactive). The GI50 (NCI-H460) was > 100 µM (inactive), the GI50 (UACC-257) was > 100 µM (inactive) and the GI50 (K562) was > 100 µM (inactive). For the same molecule, the GI50 (SNB-19) was > 100 µM (inactive), the GI50 (DU-145) was > 100 µM (inactive) and the GI50 (PC-3) was > 100 µM (inactive). For the same molecule, the GI50 (RXF 393) was > 100 µM (inactive), the GI50 (MCF7) was > 100 µM (inactive) and the GI50 (CCRF-CEM) was > 100 µM (inactive). For the same molecule, the GI50 (EKVX) was > 100 µM (inactive), the GI50 (COLO 205) was > 100 µM (inactive) and the GI50 (OVCAR-3) was > 100 µM (inactive). The GI50 (NCI-H23) was > 100 µM (inactive), the GI50 (OVCAR-8) was > 100 µM (inactive) and the GI50 (T47D) was > 100 µM (inactive). For the same molecule, the GI50 (LOX IMVI) was > 100 µM (inactive), the GI50 (SF-268) was > 100 µM (inactive) and the GI50 (OVCAR-5) was > 100 µM (inactive). The GI50 (NCI/ADR-RES) was > 100 µM (inactive), the GI50 (U-251) was > 100 µM (inactive) and the GI50 (CAKI-1) was > 100 µM (inactive). For the same molecule, the GI50 (M14) was > 100 µM (inactive), the GI50 (MOLT-4) was > 100 µM (inactive) and the GI50 (UACC-62) was > 100 µM (inactive). For the same molecule, the GI50 (BT-549) was > 100 µM (inactive), the GI50 (SW-620) was > 100 µM (inactive) and the GI50 (SF-295) was > 100 µM (inactive).
